The results in this text go back to patent publication US20250129074A1, “CHIMERIC COMPOUND FOR TARGETED DEGRADATION OF ANDROGEN RECEPTOR PROTEIN, PREPARATION METHOD THEREFOR, AND MEDICAL USE THEREOF” (Jiangsu Hengrui Pharmaceuticals Co., Ltd., priority 2021, published 2025).

Read-outs that look alike come from different tables or passages of the source.

For orientation: DC50 means the concentration at which degradation of the target reaches its halfway point. For orientation: IC50 means the concentration that inhibits the measured activity by half.

One test concerns the target T1, androgen receptor (AR) (Homo sapiens, UniProt P10275, T878A).
T1 construct: host or cells: LNCaP human prostate cancer cells
T1 sequence (P10275 1-920 T878A): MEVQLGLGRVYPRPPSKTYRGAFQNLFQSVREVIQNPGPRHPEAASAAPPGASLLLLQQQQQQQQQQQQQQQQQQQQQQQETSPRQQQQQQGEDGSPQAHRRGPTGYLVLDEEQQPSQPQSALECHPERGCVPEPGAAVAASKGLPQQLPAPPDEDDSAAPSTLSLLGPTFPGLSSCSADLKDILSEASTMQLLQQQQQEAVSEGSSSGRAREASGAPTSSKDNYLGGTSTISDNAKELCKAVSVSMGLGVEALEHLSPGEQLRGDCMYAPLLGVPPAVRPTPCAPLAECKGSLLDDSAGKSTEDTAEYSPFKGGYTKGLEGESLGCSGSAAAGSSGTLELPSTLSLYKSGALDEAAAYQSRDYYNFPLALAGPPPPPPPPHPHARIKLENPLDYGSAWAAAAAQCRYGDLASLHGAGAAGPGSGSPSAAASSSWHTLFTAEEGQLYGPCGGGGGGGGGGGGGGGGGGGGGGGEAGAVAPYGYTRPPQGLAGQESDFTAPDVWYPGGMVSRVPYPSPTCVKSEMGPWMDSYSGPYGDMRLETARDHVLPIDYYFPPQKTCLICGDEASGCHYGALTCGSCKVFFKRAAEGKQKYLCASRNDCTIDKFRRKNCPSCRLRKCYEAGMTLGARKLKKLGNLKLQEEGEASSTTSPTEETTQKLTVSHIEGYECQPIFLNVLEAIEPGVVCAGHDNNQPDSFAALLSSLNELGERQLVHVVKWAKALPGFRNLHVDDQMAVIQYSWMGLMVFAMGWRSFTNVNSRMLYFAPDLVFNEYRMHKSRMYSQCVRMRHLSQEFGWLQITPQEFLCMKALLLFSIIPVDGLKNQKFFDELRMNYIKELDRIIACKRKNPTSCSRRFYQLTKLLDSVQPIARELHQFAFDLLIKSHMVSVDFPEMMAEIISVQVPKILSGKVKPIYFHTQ
Kind of test: Degradation activity on androgen receptor in LNCaP cells (AR ELISA). The format is cell-based. As to conditions: for Dmax: read-out: Max (maximum AR degradation rate). How it is done: The plate was incubated in a 37° C., 5% CO2 cell incubator for three days. […] A blank control cell well containing 0.5% DMSO was set up. The plate was incubated in a 37° C., 5% CO2 cell incubator for 24 hours. […] The lysate was well mixed by pipetting up and down and then centrifuged at 4000 rpm at 4° C. for 10 minutes. […] The plate was sealed and incubated in a 37° C. incubator for 1 hour. […] The plate was sealed and then incubated in a 37° C. incubator for 30 minutes.

The next test concerns LNCaP cells. The experiment in a line: Inhibition of LNCaP proliferation (CellTiter-Glo). The format is cell-based. Conditions: Homo sapiens, 144 h, 0.1 nM R1881, six days; for Emax: read-out: Max (maximum proliferation inhibition rate). The protocol:
The plate was incubated in a 37° C., 5% CO2 cell incubator for three days. […] A blank control cell well containing 0.5% DMSO and a cell-free vehicle control well were set up. The plate was incubated in a 37° C., 5% CO2 cell incubator for six days.
(In general: In ATP-based viability assays light output follows the ATP content of the culture.)

Where [1] appears, read: 0.1 nM R1881, 24 hours, read-out: LNCaP DC50.
Setting [2] is: read-out: LNCaP DC50, 0.1 nM R1881, 24 hours.

As for `C[C@H]1CC2(CCN(c3ccc(C(=O)N4CCN(CC5CCN(c6cccc(NC7CCC(=O)NC7=O)c6)CC5)CC4)cc3)CC2)CN1c1ccc(C#N)c(Cl)c1` (stereo partly drawn) [Example 37, 2-Chloro-4-((3S)-8-(4-(4-((1-(3-((2,6-dioxopiperidin-3-yl)amino)phenyl)piperidin-4-yl)methyl)piperazine-1-carbonyl)phenyl)-3-methyl-2,8-diazaspiro[4.5]decan-2-yl)benzonitrile], on androgen receptor (AR) (setting [1]), the DC50 came to 7.6 nM. For the same compound, at androgen receptor (AR) (0.1 nM R1881, 24 hours), the Dmax came to 97%. For the same compound, in the test with LNCaP cells, the IC50 was determined as 125 nM and the Emax was 73%.

`C[C@H]1CC2(CCN(c3ccc(C(=O)N4CCC(CN5CCC(N6CCN(c7ccc(N8CCC(=O)NC8=O)cc7)CC6)CC5)CC4)cc3)CC2)CN1c1ccc(C#N)c(Cl)c1` [Example 9, (S)-2-Chloro-4-(8-(4-(4-((4-(4-(4-(2,4-dioxotetrahydropyrimidin-1(2H)-yl)phenyl)piperazin-1-yl)piperidin-1-yl)methyl)piperidine-1-carbonyl)phenyl)-3-methyl-2,8-diazaspiro[4.5]decan-2-yl)benzonitrile]: the DC50 on androgen receptor (AR) (setting [1]) was 12.9 nM. On androgen receptor (AR) (0.1 nM R1881, 24 hours), the Dmax worked out at 92%. Further, in the test on LNCaP cells, the IC50 turned out to be 69 nM and the Emax was 59%.

On to `C[C@H]1CC2(CCN(c3ccc(C(=O)N4CCC5(CC4)CC(N4CCN(c6ccc(N7CCC(=O)NC7=O)cc6)CC4)C5)c(F)c3)CC2)CN1c1ccc(C#N)c(Cl)c1` [Example 31, (S)-2-Chloro-4-(8-(4-(2-(4-(4-(2,4-dioxotetrahydropyrimidin-1(2H)-yl)phenyl)piperazin-1-yl)-7-azaspiro[3.5]nonane-7-carbonyl)-3-fluorophenyl)-3-methyl-2,8-diazaspiro[4.5]decan-2-yl)benzonitrile], for which, at androgen receptor (AR) (setting [1]), the DC50 turned out to be 8.7 nM. The Dmax on androgen receptor (AR) (0.1 nM R1881, 24 hours) stood at 94%. In addition, in the test on LNCaP cells, the IC50 is 12 nM and the Emax is 57%.

For the compound `C[C@H]1CC2(CCN(c3ccc(C(=O)N4CCC(CN5CCN(c6ccc(C(=O)NC7CCC(=O)NC7=O)nc6)CC5)CC4)cc3)CC2)CN1c1ccc(C#N)c(Cl)c1` (stereo partly drawn) [Example 4, 5-(4-((1-(4-((S)-2-(3-Chloro-4-cyanophenyl)-3-methyl-2,8-diazaspiro[4.5]decan-8-yl)benzoyl)piperidin-4-yl)methyl)piperazin-1-yl)-N-(2,6-dioxopiperidin-3-yl)picolinamide], on androgen receptor (AR) (setting [1]), the DC50 worked out at 20.2 nM. Also, at androgen receptor (AR) (0.1 nM R1881, 24 hours), the Dmax was 92%. In the test on LNCaP cells, the IC50 is 135 nM and the Emax came out at 58%.

As for `C[C@H]1CC2(CCN(c3ccc(C(=O)N4CCC(CN5CCN(c6ccc(NC7CCC(=O)NC7=O)cc6)CC5)CC4)cc3)CC2)CN1c1ccc(C#N)c(Cl)c1` (stereo partly drawn) [Example 25, 2-Chloro-4-((3S)-8-(4-(4-((4-(4-((2,6-dioxopiperidin-3-yl)amino)phenyl)piperazin-1-yl)methyl)piperidine-1-carbonyl)phenyl)-3-methyl-2,8-diazaspiro[4.5]decan-2-yl)benzonitrile], the DC50 on androgen receptor (AR) (setting [1]) stood at 1.8 nM. Besides, the Dmax at androgen receptor (AR) (0.1 nM R1881, 24 hours) came out at 96%. In the test with LNCaP cells, the IC50 was 24 nM and the Emax turned out to be 60%.

In the case of `C[C@H]1CC2(CCN(c3ccc(C(=O)N4CCN(CC(=O)Nc5cccc(NC6CCC(=O)NC6=O)c5)CC4)cc3)CC2)CN1c1ccc(C#N)c(Cl)c1` (stereo partly drawn) [Example 42, 2-(4-(4-((S)-2-(3-Chloro-4-cyanophenyl)-3-methyl-2,8-diazaspiro[4.5]decan-8-yl)benzoyl)piperazin-1-yl)-N-(3-((2,6-dioxopiperidin-3-yl)amino)phenyl)acetamide], the DC50 on androgen receptor (AR) (setting [1]) amounted to 4.2 nM. The Dmax on androgen receptor (AR) (0.1 nM R1881, 24 hours) turned out to be 90%. Also, in the test on LNCaP cells, the IC50 is 39 nM and the Emax worked out at 50%.

For `C[C@H]1CC2(CCN(c3ccc(C(=O)N4CCC(CN5CCN(c6cccc(NC7CCC(=O)NC7=O)c6)CC5)CC4)cn3)CC2)CN1c1ccc(C#N)c(Cl)c1` (stereo partly drawn) [Example 18, 2-Chloro-4-((3S)-8-(5-(4-((4-(3-((2,6-dioxopiperidin-3-yl)amino)phenyl)piperazin-1-yl)methyl)piperidine-1-carbonyl)pyridin-2-yl)-3-methyl-2,8-diazaspiro[4.5]decan-2-yl)benzonitrile], at androgen receptor (AR) (setting [1]), the DC50 came to 5.8 nM. Besides, the Dmax on androgen receptor (AR) (0.1 nM R1881, 24 hours) was found to be 96%. In addition, in the test with LNCaP cells, the IC50 is 123 nM and the Emax turned out to be 72%.

Consider `C[C@H]1CC2(CCN(C(=O)c3ccc(SC4CCN(C5CN(c6ccc(C(=O)NC7CCC(=O)NC7=O)c(F)c6)C5)CC4)nc3)CC2)CN1c1ccc(C#N)c(Cl)c1` (stereo partly drawn) [Example 5, 4-(3-(4-((5-((S)-2-(3-Chloro-4-cyanophenyl)-3-methyl-2,8-diazaspiro[4.5]decane-8-carbonyl)pyridin-2-yl)thio)piperidin-1-yl)azetidin-1-yl)-N-(2,6-dioxopiperidin-3-yl)-2-fluorobenzamide], for which, on androgen receptor (AR) (0.1 nM R1881, 24 hours), the Dmax is 86%. Moreover, the DC50 at androgen receptor (AR) (setting [2]) was 30.5 nM. Also, in the test with LNCaP cells, 189 nM corresponded to half-maximal inhibition (IC50) and the Emax is 72%.

On to `C[C@H]1CC2(CCN(c3ccc(C(=O)N4CCC5(CC4)CC(N4CCN(c6cccc(NC7CCC(=O)NC7=O)c6)CC4)C5)cc3F)CC2)CN1c1ccc(C#N)c(Cl)c1` (stereo partly drawn) [Example 36, 2-Chloro-4-((3S)-8-(4-(2-(4-(3-((2,6-dioxopiperidin-3-yl)amino)phenyl)piperazin-1-yl)-7-azaspiro[3.5]nonane-7-carbonyl)-2-fluorophenyl)-3-methyl-2,8-diazaspiro[4.5]decan-2-yl)benzonitrile], for which the DC50 at androgen receptor (AR) (setting [1]) amounted to 5.3 nM. Also, the Dmax at androgen receptor (AR) (0.1 nM R1881, 24 hours) worked out at 97%. In addition, in the test on LNCaP cells, the IC50 stood at 35 nM and the Emax was found to be 57%.

In the case of `C[C@H]1CC2(CCN(c3cnc(C(=O)N4CCC(CN5CCN(c6cccc(NC7CCC(=O)NC7=O)c6)CC5)CC4)cn3)CC2)CN1c1ccc(C#N)c(Cl)c1` (stereo partly drawn) [Example 17, 2-Chloro-4-((3S)-8-(5-(4-((4-(3-((2,6-dioxopiperidin-3-yl)amino)phenyl)piperazin-1-yl)methyl)piperidine-1-carbonyl)pyrazin-2-yl)-3-methyl-2,8-diazaspiro[4.5]decan-2-yl)benzonitrile], at androgen receptor (AR) (0.1 nM R1881, 24 hours), the Dmax was 97%. Moreover, at androgen receptor (AR) (setting [2]), the DC50 worked out at 3 nM. Also, in the test with LNCaP cells, the IC50 amounted to 112 nM and the Emax amounted to 74%.

Consider `C[C@H]1CC2(CCN(c3ccc(C(=O)N4CCC(N5CCN(c6ccc(C(=O)NC7CCC(=O)NC7=O)nc6)CC5)CC4)cc3)CC2)CN1c1ccc(C#N)c(Cl)c1` (stereo partly drawn) [Example 2, 5-(4-(1-(4-((S)-2-(3-Chloro-4-cyanophenyl)-3-methyl-2,8-diazaspiro[4.5]decan-8-yl)benzoyl)piperidin-4-yl)piperazin-1-yl)-N-(2,6-dioxopiperidin-3-yl)picolinamide], for which the Dmax on androgen receptor (AR) (0.1 nM R1881, 24 hours) came out at 90%. Also, the DC50 at androgen receptor (AR) (setting [2]) worked out at 5.1 nM. For the same compound, in the test with LNCaP cells, inhibition was half-maximal at 164 nM (IC50) and the Emax was 62%.

`C[C@H]1CC2(CCN(c3ccc(C(=O)N4CCC(CN5CCN(c6cc(NC7CCC(=O)NC7=O)ccn6)CC5)CC4)cc3)CC2)CN1c1ccc(C#N)c(Cl)c1` (stereo partly drawn) [Example 24, 2-Chloro-4-((3S)-8-(4-(4-((4-(4-((2,6-dioxopiperidin-3-yl)amino)pyridin-2-yl)piperazin-1-yl)methyl)piperidine-1-carbonyl)phenyl)-3-methyl-2,8-diazaspiro[4.5]decan-2-yl)benzonitrile]: the DC50 at androgen receptor (AR) (setting [1]) is 9.1 nM. For the same compound, the Dmax at androgen receptor (AR) (0.1 nM R1881, 24 hours) was determined as 94%. Further, in the test with LNCaP cells, half-maximal inhibition (IC50) was put at 659 nM and the Emax came to 54%.
